# Measurements from ChEMBL document CHEMBL3259523, “Triazolo[4,5-d]pyrimidine Derivatives as Inhibitors of GCN2” (ACS Med Chem Lett, 2014).
# Tests used:
# eIF-2-alpha kinase GCN2 [1] = target: T1, eIF-2-alpha kinase GCN2 (Homo sapiens, UniProt Q9P2K8); assay: Inhibition of GCN2 (unknown origin) using GFP-elF2a as substrate preincubated with substrate for 20 mins measured after 90 mins by Lanthascreen assay
# eIF-2-alpha kinase GCN2 [2] = target: T1, eIF-2-alpha kinase GCN2; assay: Inhibition of GCN2-mediated elF2alpha phosphorylation in human U2OS cells after 2 hrs by immunocytochemistry; type: cell-based
# T1 sequence (Q9P2K8 whole entry): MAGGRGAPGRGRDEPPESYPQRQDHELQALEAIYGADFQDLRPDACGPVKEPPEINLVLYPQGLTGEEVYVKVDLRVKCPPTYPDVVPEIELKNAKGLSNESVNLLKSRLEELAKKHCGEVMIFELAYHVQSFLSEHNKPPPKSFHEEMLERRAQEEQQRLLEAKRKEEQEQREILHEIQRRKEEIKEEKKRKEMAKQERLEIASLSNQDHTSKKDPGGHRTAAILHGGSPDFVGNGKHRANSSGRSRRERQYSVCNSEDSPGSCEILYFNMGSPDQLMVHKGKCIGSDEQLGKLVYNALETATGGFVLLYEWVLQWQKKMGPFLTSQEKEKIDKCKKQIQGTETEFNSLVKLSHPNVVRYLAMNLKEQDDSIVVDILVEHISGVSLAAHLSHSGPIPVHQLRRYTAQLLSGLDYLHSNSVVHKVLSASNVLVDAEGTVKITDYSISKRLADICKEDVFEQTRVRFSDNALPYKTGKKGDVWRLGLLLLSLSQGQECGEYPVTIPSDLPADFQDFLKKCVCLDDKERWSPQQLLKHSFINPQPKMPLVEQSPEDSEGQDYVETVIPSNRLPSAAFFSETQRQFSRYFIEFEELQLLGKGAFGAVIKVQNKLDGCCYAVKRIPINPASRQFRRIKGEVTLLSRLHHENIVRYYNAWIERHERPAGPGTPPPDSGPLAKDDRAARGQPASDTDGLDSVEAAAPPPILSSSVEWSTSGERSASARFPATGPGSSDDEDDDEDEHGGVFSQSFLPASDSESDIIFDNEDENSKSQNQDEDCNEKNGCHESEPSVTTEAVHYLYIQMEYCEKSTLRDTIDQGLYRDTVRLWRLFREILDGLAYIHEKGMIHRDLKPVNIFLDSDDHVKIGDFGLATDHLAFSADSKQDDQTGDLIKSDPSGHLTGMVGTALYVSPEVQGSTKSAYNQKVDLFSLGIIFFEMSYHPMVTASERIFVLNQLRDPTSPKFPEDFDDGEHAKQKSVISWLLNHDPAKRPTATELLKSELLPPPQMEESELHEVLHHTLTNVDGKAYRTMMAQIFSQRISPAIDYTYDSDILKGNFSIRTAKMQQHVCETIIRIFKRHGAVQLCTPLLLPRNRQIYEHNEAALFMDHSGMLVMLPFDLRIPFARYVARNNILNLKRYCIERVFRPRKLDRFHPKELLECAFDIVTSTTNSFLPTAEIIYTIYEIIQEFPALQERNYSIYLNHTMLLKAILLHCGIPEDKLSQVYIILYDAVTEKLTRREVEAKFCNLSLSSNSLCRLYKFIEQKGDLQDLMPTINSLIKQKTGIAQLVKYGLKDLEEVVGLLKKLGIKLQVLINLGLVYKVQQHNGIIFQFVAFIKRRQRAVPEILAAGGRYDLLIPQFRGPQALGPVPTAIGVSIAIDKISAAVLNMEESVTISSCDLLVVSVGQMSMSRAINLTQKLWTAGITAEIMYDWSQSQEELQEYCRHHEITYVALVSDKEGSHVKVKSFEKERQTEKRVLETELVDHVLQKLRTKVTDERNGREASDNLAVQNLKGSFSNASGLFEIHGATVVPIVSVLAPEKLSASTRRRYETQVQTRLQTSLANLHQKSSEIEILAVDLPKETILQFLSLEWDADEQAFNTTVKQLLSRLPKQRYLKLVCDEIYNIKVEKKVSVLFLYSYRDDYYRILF
IC50 (eIF-2-alpha kinase GCN2 [1]),IC50 (eIF-2-alpha kinase GCN2 [2]),SMILES
< 300 nM,< 300 nM,c1cc2cn[nH]c2cc1-n1nnc2nc(Nc3ccn(C4CCOCC4)n3)ncc21
< 300 nM,< 300 nM,O[C@H]1CC[C@H](n2ccc(Nc3ncc4c(nnn4-c4ccc(Cl)c(F)c4)n3)n2)CC1
< 300 nM,< 300 nM,CCOc1ccc(-n2nnc3nc(Nc4ccn(CCCC5CCNCC5)n4)ncc32)cc1
< 300 nM,300 nM,CCn1ccc(Nc2ncc3c(nnn3-c3ccc(C(C)(C)OCCO)cc3)n2)n1
